Each block holds one compound with its values, some of them ahead of it.
Experiments:
[1] = method code SF-AS, from DOI: 10.1007/bf01964075; details: pH 2.1
[2] = not given; remark: listed apart in the source
[3] = method code SF-NMR, from DOI: 10.1002/jps.2600751016, PMID: 3795031
[4] = method code SF-HPLC, from DOI: 10.1016/0378-5173(92)90116-j; details: pH 7.4
[5] = not given; remark: listed apart in the source
[6] = method code SF-GLC, from DOI: 10.1016/s0022-3565(25)30310-1, PMID: 1181405; details: pH 7.4
[7] = not given; remark: listed apart in the source
[8] = method code SF-AS, from DOI: 10.1016/0045-6535(83)90122-4
[9] = method code SF-HPLC, from DOI: 10.1016/0378-5173(85)90011-0
[10] = method code SF-AS, from DOI: 10.1002/jps.2600690614, PMID: 7205578
[11] = method code SF-AS, from PMID: 5136171
[12] = not given; remark: listed apart in the source
[13] = not given; remark: listed apart in the source
[14] = not given; remark: listed apart in the source
[15] = method code SF-GLC, from DOI: 10.1021/jm00240a002, PMID: 1151965
[16] = method code SF, from DOI: 10.1016/0360-3016(92)90876-j, PMID: 1735696; details: pH 7.4
[17] = method code SF-AS, from DOI: 10.1248/cpb.26.2832
[18] = not given; remark: listed apart in the source
[19] = not given; remark: listed apart in the source
[20] = not given; remark: listed apart in the source
[21] = not given; remark: listed apart in the source
[22] = not given; remark: listed apart in the source
[23] = not given; remark: listed apart in the source

SMILES: CCCCCCCCOC(=O)N(C)SN(C)C(=O)Oc1ccc2c(c1)OCO2
- logP: 4.67

SMILES: CNC(=O)[C@H](CC(C)C)NC(C)=O
- logD [1]: 0.14

SMILES: CC(CO)CC(F)(F)F (centres undefined)
- logP [3]: 1.39

SMILES: COc1ccc(CNC(=O)c2cc(-c3cncc(Cl)c3)cnc2-c2ccccn2)nc1OC
- logP [5]: 3.2

SMILES: CC(c1c(O)c2ccccc2oc1=O)c1c(O)c2ccccc2oc1=O
- logP [7]: 0.43

SMILES: O=[N+]([O-])c1ccc(Cl)c(Cl)c1
- logP [8]: 3.12

SMILES: CNC(=O)OC
- logD [6]: -0.06

SMILES: O=[N+]([O-])c1c(Cl)c(Cl)cc(Cl)c1Cl
- logP [8]: 3.89

SMILES: Nc1nc[nH]n1
- logP [2]: -0.87

SMILES: CCC(O)CCC(F)(F)F (centres undefined)
- logP [3]: 1.7

SMILES: O=[N+]([O-])c1cc(Cl)c(Cl)cc1Cl
- logP [8]: 3.48

SMILES: CCOC(=O)c1cnc2cc(OCCOC)c(OCC(C)C)cc2c1O
- logP [11]: 1.84

SMILES: CCCCCCCCCCCCCCCCOC(=O)N(C)SN(C)C(=O)Oc1ccc2c(c1)OCO2
- logP: 10.5

SMILES: CCCCC(c1c(O)c2ccccc2oc1=O)c1c(O)c2ccccc2oc1=O
- logP [7]: 2.69

SMILES: CNC(=O)C(C)NC(C)=O (racemic)
- logD [1]: -1.21

SMILES: O=c1cc(O)cco1
- logP [12]: 0.5

SMILES: O=[N+]([O-])c1c(Cl)c(Cl)c(Cl)c(Cl)c1Cl
- logP [14]: 4.64

SMILES: CC(=O)OC(C(=O)ON=C1C2CC3CC(C2)CC1C3)c1ccccc1 (centres undefined)
- logP [13]: 3.28

SMILES: FC(F)(F)C(Cl)Br (centres undefined)
- logP [15]: 2.3

SMILES: O=c1[nH]cnc2[nH]ncc12
- logD ([9]; pH 7.4): -0.55

SMILES: FC(F)(F)C(F)(F)F
- logP [15]: 2

SMILES: CC(=O)OCC(=O)[C@@]1(O)CC[C@H]2[C@@H]3CCC4=CC(=O)C=C[C@]4(C)[C@H]3[C@@H](O)C[C@@]21C
- logP [17]: 2.4

SMILES: CC(=O)OCC(=O)[C@@]1(O)[C@H](OC(C)=O)C[C@H]2[C@@H]3CCC4=CC(=O)C=C[C@]4(C)[C@@]3(F)[C@@H](O)C[C@@]21C
- logP [17]: 1.92

SMILES: CN(C)CCN(Cc1cccs1)c1ccccn1
- logP [10]: 2.87

SMILES: Cc1c(O)cc(C(=O)Cc2ccccc2)oc1=O
- logP [12]: 0.78

SMILES: O=C1c2c(O)cccc2C(C(=O)C(c2ccccc2)c2ccccc2)c2cccc(O)c21
- logP [19]: 4.6

SMILES: CCC(=O)OC1CC(n2cc(C=CBr)c(=O)[nH]c2=O)OC1COP1(=O)OCc2cccc(C)c2O1 (centres undefined)
- logP [20]: 2.3

SMILES: Cc1cc(C(=O)N2Cc3ccc(C(=O)N(CCO)CCO)n3Cc3ccccc32)ccc1-c1ccccc1C(F)(F)F
- logP [21]: 3.21

SMILES: CCCCCC(=O)OC1CC(n2cc(C=CBr)c(=O)[nH]c2=O)OC1COP1(=O)OCc2cccc(C)c2O1 (centres undefined)
- logP [20]: 2.6

SMILES: O=C1c2c(O)cccc2C(C(=O)Cc2ccc3ccccc3c2)c2cccc(O)c21
- logP [19]: 4.71

SMILES: O=C1c2c(O)cccc2C(C(=O)Cc2cccc3ccccc23)c2cccc(O)c21
- logP [19]: 4.61

SMILES: CNC(=O)Oc1cc(C)c(C)c(C)c1
- logD [6]: 2.66

SMILES: COc1nc(C)ncc1OCC1(c2cccc(F)c2)CC1C(=O)Nc1ccc(F)cn1 (centres undefined)
- logP [5]: 3.65

SMILES: CCCCCCCCCC(=O)OC1CC(n2cc(C=CBr)c(=O)[nH]c2=O)OC1COP1(=O)OCc2cccc(C)c2O1 (centres undefined)
- logP [20]: 2.8

SMILES: O=C1C2C3C=CC(CC3)C2C(=O)N1CCCCN1CCN(c2ccc3ccccc3n2)CC1 (centres undefined)
- logP [22]: 3.83

SMILES: CCCCCCCCCCCCOC(=O)N(C)SN(C)C(=O)Oc1ccc2c(c1)OCO2
- logP: 7.39

SMILES: CC(C)C12CCC(C)(CC1)C1C(=O)N(CCCCN3CCN(c4ccc5ccccc5n4)CC3)C(=O)C12 (centres undefined)
- logP [22]: 6.59

SMILES: COc1ccccc1C(=O)N1CCCN(c2nc3ccc(Cl)cc3s2)CC1
- logP [5]: 4.98

SMILES: CCC(C(=O)OCc1ccc(COC(=O)C(CC)C(CO)Cc2cncn2C)cc1)C(CO)Cc1cncn1C (centres undefined)
- logD [4]: 2.18

SMILES: O=C(O)c1[nH]c2cc(Cl)cc(Cl)c2c1CN1CC(=O)N(c2ccc(OCCF)c(Cl)c2)C1=O
- logP [18]: 2.53

SMILES: CC1=C(C(=O)OC(C)C)C(c2cccc([N+](=O)[O-])c2)C(C(=O)OC2CN(C(c3ccccc3)c3ccccc3)C2)=C(N)N1 (centres undefined)
- logP [23]: 5.18

SMILES: CC(C)Oc1ccccc1OC(=O)N(C)SN(C)C(=O)Oc1ccc2c(c1)OCO2
- logP: 2.7

SMILES: O=C(Cc1cc(O)cc(=O)o1)c1ccccc1
- logP [12]: 0.43

SMILES: Clc1ccc(Cl)c(Cl)c1
- logP [14]: 4.03

SMILES: Cc1cccc2c1OP(=O)(OCC1OC(n3cc(C=CBr)c(=O)[nH]c3=O)CC1OC(=O)C(C)(C)C)OC2 (centres undefined)
- logP [20]: 3

SMILES: CCCCC(=O)OC1(C(=O)CO)C(C)CC2C3CCC4=CC(=O)C=CC4(C)C3(F)C(O)CC21C (centres undefined)
- logP [17]: 3.49

SMILES: CCCC(c1c(O)c2ccccc2oc1=O)c1c(O)c2ccccc2oc1=O
- logP [7]: 2.31

SMILES: O=C(Cn1ccnc1[N+](=O)[O-])NCCO
- logD [16]: -1.32

Now from value to compound:

- logP [2]: 2.9
SMILES: CCOC(=O)COc1cccc2ccccc12

- logD [4]: 2.67
SMILES: CCC(C(=O)OCCCCCCCOC(=O)C(CC)C(CO)Cc1cncn1C)C(CO)Cc1cncn1C (centres undefined)

- logD [6]: 0.95
SMILES: CCCOC(=O)NC

- logP [9]: 0.3
SMILES: CCC(=O)n1ncc2c(=O)[nH]cnc21

- logP [10]: -0.68
SMILES: S=C1NCCCN1

- logP [9]: -0.35
SMILES: CC(=O)n1ncc2c(=O)[nH]cnc21

- logP [13]: 4.64
SMILES: CC(=O)C(C(=O)ON=C(C)C12CC3CC(CC(C3)C1)C2)c1ccccc1 (centres undefined)

- logP [11]: 1.72
SMILES: CCCCOc1cc2c(O)c(C(=O)OCC)cnc2cc1OCCOC

- logD [16]: -0.43
SMILES: O=[N+]([O-])c1nccn1CC=NO

- logP [3]: 1.37
SMILES: CC(CCO)C(F)(F)F (centres undefined)

- logP [5]: 3.79
SMILES: Cn1c(CCC(=O)N2CCC[C@H]2C(=O)Nc2ccccc2-c2ccccc2)nc2ccccc21

- logP [18]: 1.51
SMILES: O=C(O)c1[nH]c2cc(Cl)cc(Cl)c2c1CN1CC(=O)N(c2ccccc2OCCF)C1=O

- logP [11]: 1.7
SMILES: CCCOc1cc2c(O)c(C(=O)OCC)cnc2cc1OCCOC

- logD [4]: 2.03
SMILES: CCC(C(=O)OCc1ccccc1COC(=O)C(CC)C(CO)Cc1cncn1C)C(CO)Cc1cncn1C (centres undefined)

- logP [22]: 6.3
SMILES: CC(C)C12C=CC(C)(CC1)C1C(=O)N(CCCCN3CCN(c4ccc5ccccc5n4)CC3)C(=O)C12 (centres undefined)

- logP [19]: 4.97
SMILES: O=C1c2c(O)cccc2C(C(=O)CC2CCCCC2)c2cccc(O)c21

- logP [22]: 3.64
SMILES: O=C1C2C3CCC(C3)C2C(=O)N1CCCCN1CCN(c2ccc3ccccc3n2)CC1 (centres undefined)

- logP [21]: 3.31
SMILES: Cc1cc(C(=O)N2Cc3ccc(C(=O)N(CCO)CCO)n3Cc3ccccc32)ccc1-c1cc(F)ccc1C(F)(F)F

- logP [13]: 3.21
SMILES: CC(=O)OC(C(=O)NC12CC3CC(CC(C3)C1)C2)c1ccccc1 (centres undefined)

- logP [17]: 2.1
SMILES: CC(=O)OCC(=O)[C@@]1(O)CC[C@H]2[C@@H]3CCC4=CC(=O)CC[C@]4(C)[C@H]3C(=O)C[C@@]21C

- logP [21]: 4.08
SMILES: Cc1cc(C(=O)N2Cc3ccc(C(=O)N4CCOCC4)n3Cc3ccccc32)ccc1-c1ccccc1CCF

- logP [13]: 3.72
SMILES: CCC(=O)OC(C(=O)NC12CC3CC(CC(C3)C1)C2)c1ccccc1 (centres undefined)

- logP [21]: 4.18
SMILES: Cc1cc(C(=O)N2Cc3ccc(C(=O)NCCF)n3Cc3ccccc32)ccc1-c1ccccc1C(F)(F)F

- logP [15]: 2.21
SMILES: COC(F)(F)C(Cl)Cl

- logP [11]: 1.86
SMILES: CCOC(=O)c1cnc2cc(OCCOC)c(OC(C)C)cc2c1O

- logD [1]: -1.56
SMILES: CNC(=O)CNC(C)=O

- logD [4]: 1.57
SMILES: CCC(C(=O)OCCCCCOC(=O)C(CC)C(CO)Cc1cncn1C)C(CO)Cc1cncn1C (centres undefined)

- logP [2]: 0.06
SMILES: CS(=O)(=O)c1ccc(OCC(=O)O)cc1

- logP [7]: 1.83
SMILES: O=c1oc2ccccc2c(O)c1Cc1c(O)c2ccccc2oc1=O

- logD [16]: -0.47
SMILES: CC(=O)O/N=C/Cn1ccnc1[N+](=O)[O-]

- logP [18]: 2.07
SMILES: O=C(O)c1[nH]c2cc(Cl)cc(Cl)c2c1CN1CC(=O)N(c2ccc(OCCF)cc2)C1=O

- logP [23]: 3.65
SMILES: CCOC(=O)C1=C(C)NC(C)=C(C(=O)OC)C1c1cccc(Cl)c1Cl (centres undefined)

- logP [23]: 2.88
SMILES: CCOC(=O)C1=C(C)NC(C)=C(C(=O)OC)C1c1cccc([N+](=O)[O-])c1 (centres undefined)

- logP [10]: 1.13
SMILES: CCN1CCN(CC)C1=S

- logP [18]: 2.26
SMILES: COc1ccc(N2C(=O)CN(Cc3c(C(=O)O)[nH]c4cc(Cl)cc(Cl)c34)C2=O)cc1

- logP [14]: 1.25
SMILES: NC(=O)c1c(Cl)cccc1Cl

— the SangsterLogP compilation
